# Measured values as given in US20080045611A1, “Methods for the therapeutic use of a carbonic anhydrase inhibitor for reducing spinal cord edema” (priority 2006, published 2008).
# Experiment: Case: patient with ascending spinal cord edema after thoracic fracture and spinal cord injury, treated intravenously
# Format: in vivo
# Conditions: spinal cord edema on MRI after laminectomy and surgical fixation, intravenous dose of 500 mg in sterile saline, within a short period
# Procedure: A patient, suffers a fractured thoracic vertebrae and spinal cord injury. […] An intravenous dose of 500 mg of acetazolamide in sterile saline is administered.
structure (smiles),measurement,value
CC(=O)Nc1nnc(S(N)(=O)=O)s1 [acetazolamide],neurological outcome (sensory and motor functions),regains sensory and motor functions in their upper extremities
